Assay: molar heat capacity at constant pressure
Conditions: 101.33 kPa, Crystal, Small (less than 1 g) adiabatic calorimetry

Nc1nc2ncc(CNc3ccc(C(=O)N[C@@H](CCC(=O)O)C(=O)O)cc3)nc2c(=O)[nH]1.O.O [folic acid dihydrate]
Conditions	molar heat capacity at constant pressure [J/K/mol]
4 K	0.102
5 K	0.2491
6 K	0.5453
6.19 K	0.593
6.38 K	0.655
6.61 K	0.721
6.75 K	0.802
6.92 K	0.887
7 K	0.912
7.08 K	0.945
7.25 K	1.04
7.41 K	1.13
7.57 K	1.252
7.74 K	1.385
7.91 K	1.525
8 K	1.566
8.09 K	1.638
8.26 K	1.768
8.44 K	1.945
8.62 K	2.088
8.81 K	2.306
8.99 K	2.516
9 K	2.515
9.18 K	2.748
9.37 K	2.964
9.57 K	3.161
9.76 K	3.423
9.96 K	3.738
10 K	3.778
10.25 K	4.166
10.62 K	4.708
10.99 K	5.254
11.38 K	5.862
11.76 K	6.483
12.15 K	7.179
12.54 K	7.815
12.94 K	8.333
13.34 K	8.928
13.74 K	9.587
14.14 K	10.14
14.55 K	10.74
14.95 K	11.46
15 K	11.59
15.36 K	12.2
15.77 K	12.88
16.17 K	13.8
16.58 K	14.68
16.99 K	15.55
17.41 K	16.41
17.82 K	17.5
18.23 K	18.49
18.65 K	19.48
19.07 K	20.54
19.48 K	21.69
19.9 K	23.01
20 K	23.04
20.65 K	24.46
21.68 K	27.43
22.72 K	30.51
23.77 K	33.53
24.84 K	36.78
25 K	37.08
25.91 K	40.14
26.99 K	43.46
28.09 K	47.02
29.19 K	50.59
30 K	53.06
30.31 K	54.03
31.67 K	58.43
32.99 K	62.72
34.13 K	66.37
35 K	68.97
35.27 K	70.06
36.42 K	73.12
37.58 K	77.03
38.73 K	80.18
39.9 K	83.86
40 K	84.24
41.07 K	87.28
42.25 K	90.77
43.42 K	94.06
44.6 K	97.24
45 K	98.58
45.79 K	100.6
46.98 K	104.2
48.17 K	107.5
49.36 K	110.7
50 K	112.2
50.59 K	113.9
51.85 K	117.3
53.22 K	120.9
54.67 K	124.8
55.88 K	127.9
57.09 K	131
58.3 K	134.2
59.51 K	137.3
60 K	138.8
60.73 K	140.4
61.94 K	143.5
63.16 K	146.9
64.38 K	150.7
65.6 K	153.5
66.82 K	156.6
68.05 K	160.1
69.27 K	162.8
70 K	164.4
70.5 K	165.1
71.99 K	169.2
74 K	173.6
76.06 K	178.7
78.43 K	183
80 K	186.3
80.89 K	187.7
82.9 K	192.1
84.91 K	195.6
86.92 K	199
88.92 K	202.8
90 K	204.7
90.93 K	206.4
92.93 K	210.3
94.93 K	214
96.93 K	217.8
98.92 K	222.6
100 K	224.7
100.92 K	227
103.4 K	232.2
106.39 K	237.8
109.39 K	242.7
110 K	244.1
112.4 K	248.4
115.42 K	253.8
118.43 K	259.3
120 K	262
121.45 K	264.5
124.48 K	269.8
127.5 K	275.4
130 K	280.1
130.53 K	281.3
133.57 K	286.9
136.6 K	292.2
139.64 K	297.9
140 K	298.3
142.68 K	303.3
145.73 K	308.5
148.77 K	314.4
150 K	316.4
151.82 K	319.5
154.87 K	325
157.92 K	330.4
160 K	334.1
160.98 K	335.8
164.06 K	341.4
167.12 K	346.3
170 K	351.6
170.18 K	351.6
173.24 K	357.2
176.3 K	362.7
179.37 K	368.2
180 K	369
182.43 K	373.5
185.5 K	378.4
188.56 K	383.4
190 K	386.3
191.63 K	389.3
194.69 K	394.9
197.76 K	400.1
200 K	403.7
200.82 K	404.6
203.89 K	410.4
207.45 K	417
210 K	421.1
211.53 K	423.5
215.66 K	431.6
219.74 K	437.6
220 K	438.6
223.82 K	445.1
227.89 K	452.3
230 K	456.1
231.96 K	459.5
236.04 K	466.9
240 K	473.7
240.12 K	474.5
244.2 K	481.2
248.27 K	487.4
250 K	491.2
252.34 K	495.1
256.41 K	502.6
260 K	508.6
260.47 K	509.7
264.53 K	516.2
268.59 K	523.3
270 K	525.9
272.64 K	530.3
273.15 K	531.3
276.68 K	537.3
280 K	543.1
280.75 K	545.1
284.78 K	550.6
288.79 K	558.6
290 K	560.3
292.8 K	565.2
296.8 K	571.5
298.15 K	574.4
300 K	577.6
300.78 K	578.9
306.79 K	590
310 K	595.2
312.24 K	599.4
320 K	613.1
320.03 K	612.7
326.53 K	625.5
330 K	631.7
332.98 K	637.3
333 K	637.5

Source: the NIST ThermoML archive (doi:10.1016/j.jct.2016.05.001)
